Results reported in article PMC6100729, “Penicillium citrinum UFV1 β-glucosidases: purification, characterization, and application for biomass saccharification” (Biotechnology for Biofuels, 2018).
Like-named read-outs stand apart in the source and are kept apart here.

How the values were obtained:
Format in all cases: biochemical, Penicillium citrinum
PcβGlu2 [1] = test system: T1, PcβGlu2; assay: glucose release, glucose oxidase method at […] nm; conditions: 50 mM sodium acetate pH 5.0, 40 °C
T1 construct: 93 kDa SDS-PAGE, 89 kDa gel filtration (abstract 95 kDa), monomer; GH3 only tentative (MS on heterogeneous fraction)

PcβGlu1 [2] = test system: T2, PcβGlu1; assay: glucose release, glucose oxidase method at […] nm; conditions: 50 mM sodium acetate pH 5.0, 40 °C
T2 construct: native secreted enzyme purified from wheat-bran culture supernatant (ammonium sulfate, phenyl sepharose); 134 kDa SDS-PAGE, 258 kDa gel filtration (abstract 241 kDa), homodimer

PcβGlu2 [3] = test system: T1, PcβGlu2; assay: 4-methylumbelliferone fluorescence; conditions: 50 mM sodium acetate pH 5.0, 40 °C; substrate-inhibition model
Description: 4-methylumbelliferone fluorescence on PcβGlu2

PcβGlu1 [4] = test system: T2, PcβGlu1; assay: 4-methylumbelliferone fluorescence; conditions: 50 mM sodium acetate pH 5.0, 40 °C
Description: 4-methylumbelliferone fluorescence on PcβGlu1

PcβGlu2 [5] = biological target: T1, PcβGlu2; assay: pNPβGlu hydrolysis, p-nitrophenol release at […] nm; conditions: substrate pNPβGlu, 50 mM sodium acetate pH 5.0, 40 °C
PcβGlu1 [6] = biological target: T2, PcβGlu1; assay: pNPβGlu hydrolysis, p-nitrophenol release at […] nm; conditions: substrate pNPβGlu, 50 mM sodium acetate pH 5.0, 40 °C
PcβGlu2 [7] = test system: T1, PcβGlu2; assay: p-nitrophenol release at […] nm; conditions: 50 mM sodium acetate pH 5.0, 40 °C; substrate-inhibition model
PcβGlu1 [8] = test system: T2, PcβGlu1; assay: p-nitrophenol release at […] nm; conditions: 50 mM sodium acetate pH 5.0, 40 °C
[9] = mixed-type noncompetitive, free-enzyme constant, read-out: KIE

Km (PcβGlu2 [1]; substrate-inhibition model) [µM]	Km (PcβGlu1 [2]) [µM]	Compound	further results
70 ± 10	250 ± 20	OC[C@H]1O[C@@H](O[C@H]2[C@H](O)[C@@H](O)[C@H](O[C@H]3[C@H](O)[C@@H](O)[C@H](O[C@H]4[C@H](O)[C@@H](O)[C@H](O[C@H]5[C@H](O)[C@@H](O)C(O)O[C@@H]5CO)O[C@@H]4CO)O[C@@H]3CO)O[C@@H]2CO)[C@H](O)[C@@H](O)[C@@H]1O (some centres unmarked) [Cellopentaose]	
280 ± 70	420 ± 50	OC[C@H]1O[C@@H](O[C@H]2[C@H](O)[C@@H](O)[C@H](O[C@H]3[C@H](O)[C@@H](O)[C@H](O[C@H]4[C@H](O)[C@@H](O)C(O)O[C@@H]4CO)O[C@@H]3CO)O[C@@H]2CO)[C@H](O)[C@@H](O)[C@@H]1O (some centres unmarked) [Cellotetraose]	
	380 ± 40	OC[C@H]1O[C@@H](OC[C@H]2OC(O)[C@H](O)[C@@H](O)[C@@H]2O)[C@H](O)[C@@H](O)[C@@H]1O (some centres unmarked) [Gentiobiose]	Km (PcβGlu2 [1]; Michaelis-Menten): 620 ± 70 µM
420 ± 30	330 ± 40	OC[C@H]1O[C@@H](O[C@H]2[C@H](O)[C@@H](CO)OC(O)[C@@H]2O)[C@H](O)[C@@H](O)[C@@H]1O (some centres unmarked) [Laminaribiose]	
		Cc1cc(=O)oc2cc(O[C@@H]3O[C@H](CO)[C@@H](O)[C@H](O)[C@H]3O)ccc12 [MUβGlu]	Km (PcβGlu2 [3]): 14 ± 2 µM; Km (PcβGlu1 [4]): 240 ± 10 µM
190 ± 30	540 ± 30	CCCCCCCCO[C@@H]1O[C@H](CO)[C@@H](O)[C@H](O)[C@H]1O [Octyl-β-glucopyranoside]	
	1700 ± 100	OC[C@H]1O[C@@H](O[C@H]2[C@H](O)[C@@H](O)C(O)O[C@@H]2CO)[C@H](O)[C@@H](O)[C@@H]1O (some centres unmarked) [cellobiose]	Km (PcβGlu2 [1]; Michaelis-Menten): 640 ± 60 µM; Ki (PcβGlu2 [5]; [9]): 3.74 ± 0.07 mM; Ki (PcβGlu1 [6]; [9]): 10.7 ± 0.1 mM
		OC[C@H]1OC(O)[C@H](O)[C@@H](O)[C@@H]1O (some centres unmarked) [glucose]	Ki (PcβGlu2 [5]; competitive, read-out: Ki): 0.88 ± 0.08 mM; Ki (PcβGlu1 [6]; competitive, read-out: Ki): 1.89 ± 0.08 mM
		O=[N+]([O-])c1ccc(O[C@@H]2O[C@H](CO)[C@@H](O)[C@H](O)[C@H]2O)cc1 [pNPβGlu]	Km (PcβGlu2 [7]): 72 ± 7 µM; Km (PcβGlu1 [8]): 280 ± 10 µM
